How the values were obtained:
Type in all cases: biochemical
[1] = target: human c-Met kinase domain P948-S1343 (Homo sapiens, UniProt P08581); experiment: c-Met Luciferase-Coupled Chemiluminescent Kinase assay (LCCA); conditions: 1 μM ATP, 1 μM poly-EY, 10 nM c-Met; read-out: c-Met inhibition IC50
Method: (§1) Kinase activity and compound inhibition are investigated using one or more of the three assay formats described below. The ATP concentrations for each assay are selected to be close to the Michaelis-Menten constant (KM) for each individual kinase. Dose-response experiments are performed at 10 different inhibitor concentrations in a 384-well plate format. The data are fitted to the following four-parameter equation: Y=Min+(Max−Min)/(1+(X/IC50)^H) where Y is the observed signal, X is the inhibitor concentration, Min is the background signal in the absence of enzyme (0% enzyme activity), Max is the signal in the absence of inhibitor (100% enzyme activity), IC50 is the inhibitor concentration at 50% enzyme inhibition and H represents the empirical Hill's slope to measure the cooperativity. Typically H is close to unity. c-Met Assay
c-Met biochemical activity was assessed using a Luciferase-Coupled Chemiluminescent Kinase assay (LCCA) format as described above. Again, kinase activity was measured as the percent ATP remaining following the kinase reaction. Remaining ATP was detected by luciferase-luciferin-coupled chemiluminescence. Specifically, the reaction was initiated by mixing test compounds, 1 μM ATP, 1 μM poly-EY and 10 nM c-Met (baculovirus expressed human c-Met kinase domain P948-S1343) in a 20 uL assay buffer (20 mM Tris-HCL pH7.5, 10 mM MgCl2, 0.02% Triton X-100, 100 mM DTT, 2 mM MnCl2). The mixture is incubated at ambient temperature for 2 hours after which 20 uL luciferase-luciferin mix is added and the chemiluminescent signal read using a Wallac Victor^2 reader. The luciferase-luciferin mix consists of 50 mM HEPES, pH 7.8, 8.5 ug/mL oxalic acid (pH 7.8), 5 (or 50) mM DTT, 0.4% Triton X-100, 0.25 mg/mL coenzyme A, 63 uM AMP, 28 ug/mL luciferin and 40,000 units of light/mL luciferase.

[2] = target: T1, human KDR kinase domain D807-V1356 (Homo sapiens, UniProt P35968); experiment: KDR Luciferase-Coupled Chemiluminescent Kinase assay (LCCA); conditions: 3 μM ATP, 1.6 μM poly-EY, 5 nM KDR; read-out: KDR inhibition IC50
T1 construct: baculovirus expressed human KDR kinase domain D807-V1356; made in house
Method: as §1
KDR biochemical activity was assessed using a Luciferase-Coupled Chemiluminescent Kinase assay (LCCA) format. Kinase activity was measured as the percent ATP remaining following the kinase reaction. Remaining ATP was detected by luciferase-luciferin-coupled chemiluminescence. Specifically, the reaction was initiated by mixing test compounds, 3 μM ATP, 1.6 μM poly-EY and 5 nM KDR (baculovirus expressed human KDR kinase domain D807-V1356) in a 20 uL assay buffer (20 mM Tris-HCL pH7.5, 10 mM MgCl2, 0.01% Triton X-100, 1 mM DTT, 3 mM MnCl2). The mixture is incubated at ambient temperature for 4 hours after which 20 uL luciferase-luciferin mix is added and the chemiluminescent signal read using a Wallac Victor^2 reader. The luciferase-luciferin mix consists of 50 mM HEPES, pH 7.8, 8.5 ug/mL oxalic acid (pH 7.8), 5 (or 50) mM DTT, 0.4% Triton X-100, 0.25 mg/mL coenzyme A, 63 uM AMP, 28 ug/mL luciferin and 40,000 units of light/mL luciferase.

[3] = target: T2, human Flt-3 kinase domain R571-S993 (Homo sapiens, UniProt P36888); experiment: flt-3 Luciferase-Coupled Chemiluminescent Kinase assay (LCCA); conditions: 5 μM ATP, 3 μM poly-EY, 5 nM Flt-3; read-out: flt-3 inhibition IC50
T2 construct: baculovirus expressed human Flt-3 kinase domain R571-S993; made in house
T2 sequence (P36888 571-993): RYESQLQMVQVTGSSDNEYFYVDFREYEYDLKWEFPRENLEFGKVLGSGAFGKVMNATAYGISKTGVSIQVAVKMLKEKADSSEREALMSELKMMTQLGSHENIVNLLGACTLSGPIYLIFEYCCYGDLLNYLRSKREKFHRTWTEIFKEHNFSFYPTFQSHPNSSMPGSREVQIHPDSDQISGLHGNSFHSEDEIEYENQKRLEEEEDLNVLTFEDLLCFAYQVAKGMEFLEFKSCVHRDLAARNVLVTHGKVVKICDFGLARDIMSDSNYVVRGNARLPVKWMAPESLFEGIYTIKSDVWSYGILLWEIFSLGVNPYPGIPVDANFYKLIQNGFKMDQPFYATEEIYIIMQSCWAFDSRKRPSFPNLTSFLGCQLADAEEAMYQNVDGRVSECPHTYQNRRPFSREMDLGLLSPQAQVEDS
Method: as §1
Biochemical activity for flt-3 was assessed using a Luciferase-Coupled Chemiluminescent Kinase assay (LCCA) format. Kinase activity was measured as the percent ATP remaining following the kinase reaction. Remaining ATP was detected by luciferase-luciferin-coupled chemiluminescence. Specifically, the reaction was initiated by mixing test compounds, 5 μM ATP, 3 μM poly-EY and 5 nM Flt-3 (baculovirus expressed human Flt-3 kinase domain R571-S993) in a 20 uL assay buffer (20 mM Tris-HCL pH7.5, 10 mM MgCl2, 0.01% Triton X-100, 1 mM DTT, 2 mM MnCl2). The mixture is incubated at ambient temperature for 3 hours after which 20 uL luciferase-luciferin mix is added and the chemiluminescent signal read using a Wallac Victor^2 reader. The luciferase-luciferin mix consists of 50 mM HEPES, pH 7.8, 8.5 ug/mL oxalic acid (pH 7.8), 5 (or 50) mM DTT, 0.4% Triton X-100, 0.25 mg/mL coenzyme A, 63 uM AMP, 28 ug/mL luciferin and 40,000 units of light/mL luciferase.

Sequence of human c-Met kinase domain P948-S1343 (P08581 1011-1367 limits assumed): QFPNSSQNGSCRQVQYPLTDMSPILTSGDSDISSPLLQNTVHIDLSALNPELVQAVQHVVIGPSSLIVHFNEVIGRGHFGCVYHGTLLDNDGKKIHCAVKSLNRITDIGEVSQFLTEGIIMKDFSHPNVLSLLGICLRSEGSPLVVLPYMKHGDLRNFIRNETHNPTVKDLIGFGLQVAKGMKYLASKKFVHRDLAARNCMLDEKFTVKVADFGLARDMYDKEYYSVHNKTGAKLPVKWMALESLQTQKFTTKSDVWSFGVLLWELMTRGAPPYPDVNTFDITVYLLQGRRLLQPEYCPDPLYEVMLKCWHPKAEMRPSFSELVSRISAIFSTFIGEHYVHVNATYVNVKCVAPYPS
T1 sequence (P35968 807-1356): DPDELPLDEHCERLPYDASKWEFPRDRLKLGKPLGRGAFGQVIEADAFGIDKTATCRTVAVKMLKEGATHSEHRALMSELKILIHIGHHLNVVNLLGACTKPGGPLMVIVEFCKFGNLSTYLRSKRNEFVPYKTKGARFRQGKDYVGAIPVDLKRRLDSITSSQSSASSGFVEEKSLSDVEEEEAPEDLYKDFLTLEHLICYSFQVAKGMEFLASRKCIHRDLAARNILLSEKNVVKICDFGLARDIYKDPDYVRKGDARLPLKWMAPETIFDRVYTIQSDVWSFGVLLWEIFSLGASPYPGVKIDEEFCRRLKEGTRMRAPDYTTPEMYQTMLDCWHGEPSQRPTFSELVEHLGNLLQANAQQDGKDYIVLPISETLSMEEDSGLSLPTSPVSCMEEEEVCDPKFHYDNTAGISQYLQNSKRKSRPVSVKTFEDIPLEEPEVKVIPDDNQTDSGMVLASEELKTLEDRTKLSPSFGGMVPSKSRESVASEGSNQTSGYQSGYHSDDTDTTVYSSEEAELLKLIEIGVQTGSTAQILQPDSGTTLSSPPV

SMILES | IC50 [1] | IC50 [2] | IC50 [3]
O=C(CC(=O)Nc1ccc(Oc2ncnc3[nH]ccc23)c(F)c1)Nc1ccc(F)cc1 [Entry 1, N-(4-fluorophenyl)-N′-[3-fluoro-4-(7H-pyrrolo[2,3-d]pyrimidin-4-yloxy)phenyl]propanediamide] | 50 to 500 nM | 50 to 500 nM | < 50 nM
O=C(Nc1ccc(F)cc1)C1(C(=O)Nc2ccc(Oc3ncnc4[nH]ccc34)c(F)c2)CC1 [Entry 2, N-(4-fluorophenyl)-N′-[3-fluoro-4-(7H-pyrrolo[2,3-d]pyrimidin-4-yloxy)phenyl]cyclopropane-1,1-dicarboxamide] | < 50 nM | < 50 nM | 50 to 500 nM
O=C(Cc1ccccc1)NC(=S)Nc1ccc(Oc2ncnc3[nH]ccc23)c(F)c1 [Entry 3, N-({[3-fluoro-4-(7H-pyrrolo[2,3-d]pyrimidin-4-yloxy)phenyl]amino}carbonothioyl)-2-phenylacetamide] | < 50 nM | 50 to 500 nM | > 500 nM
O=C(Nc1ccc(F)cc1)C1(C(=O)Nc2ccc(Oc3ncnc4c3cnn4C3CCCCO3)cc2)CC1 (stereo not shown) [Entry 4, N-(4-fluorophenyl)-N′-(4-{[1-(tetrahydro-2H-pyran-2-yl)-1H-pyrazolo[3,4-d]pyrimidin-4-yl]oxy}phenyl)cyclopropane-1,1-dicarboxamide] | > 500 nM | > 500 nM | 
O=C(Nc1ccc(F)cc1)C1(C(=O)Nc2ccc(Oc3ncnc4[nH]ncc34)cc2)CC1 [Entry 6, N-(4-fluorophenyl)-N′-[4-(1H-pyrazolo[3,4-d]pyrimidin-4-yloxy)phenyl]cyclopropane-1,1-dicarboxamide] | > 500 nM | 50 to 500 nM | 
O=C(Nc1ccc(F)cc1)C1(C(=O)Nc2ccc(Oc3ncnc4[nH]cnc34)cc2)CC1 [Entry 10, N-(4-fluorophenyl)-N′-[4-(9H-purin-6-yloxy)phenyl]cyclopropane-1,1-dicarboxamide] | > 500 nM | > 500 nM | 
O=C(NCCN1CCOCC1)c1cc2c(Oc3ccc(NC(=O)C4(C(=O)Nc5ccc(F)cc5)CC4)cc3F)ncnc2[nH]1 [Entry 12, N-{3-fluoro-4-[(6-{[(2-morpholin-4-ylethyl)amino]carbonyl}-7H-pyrrolo[2,3-d]pyrimidin-4-yl)oxy]phenyl}-N′-(4-fluorophenyl)cyclopropane-1,1-dicarboxamide] | < 50 nM | < 50 nM | < 50 nM

The remaining lines, values ahead:

IC50 [1] | IC50 [2] | IC50 [3] | SMILES
> 500 nM | > 500 nM |  | O=C(Cc1ccccc1)NC(=S)Nc1ccc(Oc2ncnc3c2cnn3C2CCCCO2)cc1 (stereo not shown) [Entry 5, 2-phenyl-N-{[(4-{[1-(tetrahydro-2H-pyran-2-yl)-1H-pyrazolo[3,4-d]pyrimidin-4-yl]oxy}phenyl)amino]carbonothioyl}acetamide]
> 500 nM | > 500 nM |  | O=C(Cc1ccccc1)NC(=S)Nc1ccc(Oc2ncnc3[nH]ncc23)cc1 [Entry 7, 2-phenyl-N-({[4-(1H-pyrazolo[3,4-d]pyrimidin-4-yloxy)phenyl]amino}carbonothioyl)acetamide]
> 500 nM | > 500 nM |  | O=C(Nc1ccc(F)cc1)C1(C(=O)Nc2ccc(Oc3ncnc4c3ncn4C3CCCCO3)cc2)CC1 (stereo not shown) [Entry 8, N-(4-fluorophenyl)-N′-(4-{[9-(tetrahydro-2H-pyran-2-yl)-9H-purin-6-yl]oxy}phenyl)cyclopropane-1,1-dicarboxamide]
> 500 nM | > 500 nM |  | O=C(Cc1ccccc1)NC(=S)Nc1ccc(Oc2ncnc3c2ncn3C2CCCCO2)cc1 (stereo not shown) [Entry 9, 2-phenyl-N-{[(4-{[9-(tetrahydro-2H-pyran-2-yl)-9H-purin-6-yl]oxy}phenyl)amino]carbonothioyl}acetamide]
> 500 nM | > 500 nM |  | O=C(Cc1ccccc1)NC(=S)Nc1ccc(Oc2ncnc3[nH]cnc23)cc1 [Entry 11, 2-phenyl-N-({[4-(9H-purin-6-yloxy)phenyl]amino}carbonothioyl)acetamide]
